Measured values from PMC6505943, “Identification of a potential allosteric site of Golgi α-mannosidase II using computer-aided drug design” (PLoS ONE, 2019).
“Also recorded” adds a separate entry of the source. Read-outs that look alike come from different tables or passages of the source.

Columns and labels:
[1] = biological target: T1, Golgi α-mannosidase II from Drosophila melanogaster (dGMII) (Drosophila melanogaster, UniProt Q24451); assay: fluorometric enzyme inhibition assay with dGMII (4-MU-Man substrate); assay type: biochemical; conditions: for inhibition at 300 µM: at 300 μM compound, 1 mM 4-MU-Man, pH 5.75
T1 construct: His tag; made in house; host or cells: Drosophila Schneider 2 (S2) cells, secreted into the medium
T1 sequence (Q24451 76-1108 limits assumed): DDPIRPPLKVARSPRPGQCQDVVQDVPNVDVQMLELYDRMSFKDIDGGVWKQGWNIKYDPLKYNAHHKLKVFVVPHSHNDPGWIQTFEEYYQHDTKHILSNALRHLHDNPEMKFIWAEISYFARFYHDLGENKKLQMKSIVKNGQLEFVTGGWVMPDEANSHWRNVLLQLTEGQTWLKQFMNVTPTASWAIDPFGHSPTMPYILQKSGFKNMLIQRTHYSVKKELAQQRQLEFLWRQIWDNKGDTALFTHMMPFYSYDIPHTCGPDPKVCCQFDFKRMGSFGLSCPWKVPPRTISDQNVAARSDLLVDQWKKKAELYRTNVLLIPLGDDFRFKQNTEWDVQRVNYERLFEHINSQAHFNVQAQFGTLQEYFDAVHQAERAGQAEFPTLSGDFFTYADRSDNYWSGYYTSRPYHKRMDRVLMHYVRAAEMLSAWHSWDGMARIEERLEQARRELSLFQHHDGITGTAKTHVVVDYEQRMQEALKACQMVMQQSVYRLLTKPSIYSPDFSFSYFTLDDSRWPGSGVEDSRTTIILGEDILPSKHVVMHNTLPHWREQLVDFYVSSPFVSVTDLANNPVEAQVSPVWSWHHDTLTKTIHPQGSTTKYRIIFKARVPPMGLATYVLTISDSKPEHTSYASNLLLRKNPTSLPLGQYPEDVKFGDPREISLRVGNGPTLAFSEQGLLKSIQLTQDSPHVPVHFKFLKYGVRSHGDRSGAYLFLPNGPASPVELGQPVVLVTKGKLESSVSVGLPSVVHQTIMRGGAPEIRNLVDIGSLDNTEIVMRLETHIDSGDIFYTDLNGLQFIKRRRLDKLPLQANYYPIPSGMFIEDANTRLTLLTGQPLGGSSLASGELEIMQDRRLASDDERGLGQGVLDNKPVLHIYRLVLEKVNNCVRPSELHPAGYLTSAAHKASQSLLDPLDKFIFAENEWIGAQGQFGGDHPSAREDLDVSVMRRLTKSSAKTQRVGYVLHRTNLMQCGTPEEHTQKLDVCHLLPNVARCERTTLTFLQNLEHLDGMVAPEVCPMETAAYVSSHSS
Experimental: Inhibition assays with dGMII were performed at pH 5.75 in MES buffer (40 mM), supplemented with bovine serum albumin 1.1% (0.1% final concentration in MES buffer) and ZnSO4-solution 1.1% (0.1% final concentration in MES buffer). The recombinantly expressed and purified enzyme was added to a final concentration of 0.002 mg/mL per well. 4-Methylumbellifer-7-yl-α-D-mannopyranoside (4-MU-Man) was synthesized (S1 File and S2 Fig) and used as substrate with a final concentration of 1 mM per well. The total reaction volume was 50 μL and the mixture was incubated at 37°C for five minutes. […] The release of 4-methylumbelliferone was measured for 15 min by fluorescence spectroscopy using Greiner 96 Flat Bottom Black Polystyrol plates and a Tecan Reader Infinite F200 PRO equipped with a filter system (355 nm excitation and 485 nm emission). Assays in order to investigate the selectivity of compounds between different mannosidases were carried out on JBM. Assays concerning the selectivity between the desired mannosidase inhibition and a potential glucosidase inhibition were carried out on the β-glucosidase of sweet almonds using 4-methylumbelliferyl-β-D-glucopyranoside (4-MU-Glc) as substrate. The substrate 4-MU-Glc was synthesized as described in the supplementary information (S1 File and S3 Fig). JBM and β-glucosidase from sweet almonds were purchased from Sigma Aldrich. The enzyme β-glucosidase from sweet almonds was diluted in citrate buffer in order to obtain a concentration of 0.04 mg/mL. The inhibition assays were carried out at a pH of 5.0 in citrate buffer (20 mM). The substrate concentration was chosen to be 1 mM per well in accordance with the results of several KM value determinations since this concentration ensures good enzyme activity (KM = 1.9 ± 0.1 mM). Inhibition assays JBM were performed in the same buffer as for dGMII. The final concentration of the enzyme per well was 0.003 mg/ml. The substrate 4-MU-Man was used with a final concentration of 0.4 mM per well. The conducted assays with JBM and the β-glucosidase from sweet almonds were performed as described for dGMII.
The most promising compounds according to the molecular modeling studies were tested at 300 μM final concentration except for compound 24 which was tested at 100 μM per well due to the small amount available. […] The inhibition was calculated with the following Eq (2): Inhibition(%)=(1−activity(withinhibitor)/activity(withoutinhibitor))∙100 (2)
KM values were calculated using the Michaelis-Menten kinetics Eq (3) v=vmax[S]/KM+[S] (3) whereby vmax is the maximal velocity, [S] the substrate concentration and KM the substrate concentration yielding a velocity of vmax/2.
IC50 values were calculated using following Eq (4): y=ymax−ymin/1+([I]/IC50)^S+ymin (4) whereby ymax is defined as 100% enzyme activity, ymin as 0% enzyme activity, s is defined as the slope of the linear part of the curves (Hill coefficient), and [I] represents the inhibitor concentration. For the KM value determination, substrate concentrations ranging from 0.4 to 8.0 mM for dGMII and from 0.008 to 1.6 mM for JBM were used. For the IC50 determination of swainsonine, concentrations ranging from 6 to 120 nM were applied. […] The program GraFit (5.0.13, Erithacus Software, Horley, Surrey, UK (2006)) was used to calculate the IC50 values.

JBM = biological target: T2, JBM (Canavalia ensiformis, UniProt C0HJB3); assay: selectivity enzyme assay with JBM (4-MU-Man substrate); assay type: biochemical, Jack bean
T2 construct: purchased Sigma Aldrich
T2 sequence (C0HJB3 1-562 limits assumed): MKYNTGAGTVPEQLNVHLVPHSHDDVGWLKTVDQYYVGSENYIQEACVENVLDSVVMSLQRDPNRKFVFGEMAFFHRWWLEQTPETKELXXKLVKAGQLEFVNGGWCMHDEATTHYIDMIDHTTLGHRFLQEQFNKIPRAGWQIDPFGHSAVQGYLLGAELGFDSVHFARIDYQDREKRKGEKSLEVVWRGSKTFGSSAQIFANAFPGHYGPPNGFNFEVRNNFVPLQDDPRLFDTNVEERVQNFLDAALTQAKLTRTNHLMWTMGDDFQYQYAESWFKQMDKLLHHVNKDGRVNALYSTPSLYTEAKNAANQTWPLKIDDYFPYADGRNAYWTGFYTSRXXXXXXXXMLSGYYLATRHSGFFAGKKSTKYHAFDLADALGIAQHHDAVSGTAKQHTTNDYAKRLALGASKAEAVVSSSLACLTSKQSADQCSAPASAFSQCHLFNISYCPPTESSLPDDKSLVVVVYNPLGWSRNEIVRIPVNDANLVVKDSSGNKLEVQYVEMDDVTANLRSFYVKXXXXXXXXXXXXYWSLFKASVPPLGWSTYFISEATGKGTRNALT
T2 sequence (C0HJB3 563-981 limits assumed): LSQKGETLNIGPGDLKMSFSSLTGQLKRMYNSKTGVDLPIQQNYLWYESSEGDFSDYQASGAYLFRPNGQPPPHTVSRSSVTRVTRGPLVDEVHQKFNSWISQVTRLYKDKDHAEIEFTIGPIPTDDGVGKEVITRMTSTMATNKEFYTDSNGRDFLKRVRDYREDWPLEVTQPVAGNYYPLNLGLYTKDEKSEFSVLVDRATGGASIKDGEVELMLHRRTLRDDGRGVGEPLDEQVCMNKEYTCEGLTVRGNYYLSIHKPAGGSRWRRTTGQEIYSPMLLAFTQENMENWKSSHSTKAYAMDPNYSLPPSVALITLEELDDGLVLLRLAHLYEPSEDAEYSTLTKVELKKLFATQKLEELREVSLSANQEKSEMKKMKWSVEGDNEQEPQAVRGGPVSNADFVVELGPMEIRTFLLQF
Experimental: (§1) Inhibition assays with dGMII were performed at pH 5.75 in MES buffer (40 mM), supplemented with bovine serum albumin 1.1% (0.1% final concentration in MES buffer) and ZnSO4-solution 1.1% (0.1% final concentration in MES buffer). The recombinantly expressed and purified enzyme was added to a final concentration of 0.002 mg/mL per well. 4-Methylumbellifer-7-yl-α-D-mannopyranoside (4-MU-Man) was synthesized (S1 File and S2 Fig) and used as substrate with a final concentration of 1 mM per well. The total reaction volume was 50 μL and the mixture was incubated at 37°C for five minutes. […] The release of 4-methylumbelliferone was measured for 15 min by fluorescence spectroscopy using Greiner 96 Flat Bottom Black Polystyrol plates and a Tecan Reader Infinite F200 PRO equipped with a filter system (355 nm excitation and 485 nm emission). Assays in order to investigate the selectivity of compounds between different mannosidases were carried out on JBM. Assays concerning the selectivity between the desired mannosidase inhibition and a potential glucosidase inhibition were carried out on the β-glucosidase of sweet almonds using 4-methylumbelliferyl-β-D-glucopyranoside (4-MU-Glc) as substrate. The substrate 4-MU-Glc was synthesized as described in the supplementary information (S1 File and S3 Fig). […]
KM values were calculated using the Michaelis-Menten kinetics Eq (3) v=vmax[S]/KM+[S] […]

[2] = tested on: β-glucosidase of sweet almonds; assay: selectivity enzyme assay with β-glucosidase of sweet almonds (4-MU-Glc substrate); assay type: biochemical
Experimental: as §1, with “Fig). JBM and β-glucosidase from sweet almonds were purchased from Sigma Aldrich.” for “Fig).”

Cc1cc(=O)oc2cc(O[C@H]3O[C@H](CO)[C@@H](O)[C@H](O)[C@@H]3O)ccc12 [4-MU-Man, 4-Methylumbellifer-7-yl-α-D-mannopyranoside, reference compound]
Km ([1]; substrate of dGMII): 3.6 ± 0.3 mM | Km (JBM; substrate of JBM): 600 ± 60 µM

O=C(Cc1ccn[nH]1)NC[C@@H](O)c1cc2ccccc2s1 [Compound 20]
inhibition at 300 µM [1]: ~41%

N#CC(C(=O)C1CCCCN1C(=O)c1cccnc1)c1ccccn1 (centres unmarked) [Compound 18]
inhibition of the β-glucosidase of sweet almonds ([2]; at 300 μM, 1 mM 4-MU-Glc, pH 5.0): no significant inhibition; also recorded: did not exhibit significant inhibition | mode of inhibition ([1]; IC50 at varying substrate concentrations 0.1 to 3 mM): non-competitive inhibition | inhibition at 300 µM [1]: ~46% | ligand efficiency ([1]; based on the inhibitory activity observed in the fluorometric assay): approximately 0.20 kcal/mol | IC50 ([1]; dGMII, 4-MU-Man substrate, read-out: IC50): 217 ± 44.3 µM | inhibition at 300 µM (JBM; at 300 μM, 0.4 mM 4-MU-Man): 70%

Cc1cc(=O)oc2cc(O[C@@H]3O[C@H](CO)[C@@H](O)[C@H](O)[C@H]3O)ccc12 [4-MU-Glc, 4-methylumbelliferyl-β-D-glucopyranoside, reference compound]
Km ([2]; substrate of β-glucosidase from sweet almonds): 1.9 ± 0.1 mM

O[C@H]1[C@H]2[C@H](O)CCCN2C[C@H]1O [swainsonine, reference compound]
IC50 [1]: 0.034 ± 0.0014 µM
